# Source: ChEMBL document CHEMBL1201862, “PubChem BioAssay data set” (2004)
#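 48-hour exposure; five concentrations; linearly interpolated endpoints. GI50 is the concentration that inhibits growth by half.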 The source made the active and inactive calls. No stated cut-off is given here; in the data, active = GI50 up to about 1.1 µM and inactive = higher.
# How the values were obtained:
# Assay in all cases: NCI anticancer screen, dose series, 48 h
# [1] = system: NCI-H226
# [2] = system: OVCAR-5
# [3] = system: KM12
# [4] = system: HCC 2998
# [5] = system: OVCAR-4
# [6] = system: DLD-1
# [7] = system: SF-268
# [8] = system: RXF 393
# [9] = system: HOP-18
# [10] = system: K562
# [11] = system: OVCAR-8
# [12] = system: NCI-H522
# [13] = system: SK-MEL-5
# [14] = system: SF-295
# [15] = system: EKVX
# [16] = system: Malme-3M
# [17] = system: SNB-78
# [18] = system: U-251
# [19] = system: SNB-75
# [20] = system: IGROV-1
# [21] = system: TK-10
# [22] = system: M19-MEL
# [23] = system: OVCAR-3
# [24] = system: SK-OV-3
# [25] = system: 786-0
# [26] = system: NCI-H23
# [27] = system: CCRF-CEM
# [28] = system: MOLT-4
# [29] = system: ACHN
# [30] = system: HCT-15
# [31] = system: DMS-273
# [32] = system: A498
# [33] = system: XF498
# [34] = system: SR
# [35] = system: SF-539
# [36] = system: LOX IMVI
# [37] = system: DMS-114
# [38] = system: SN12C
# [39] = system: COLO 205
# [40] = system: M14
# [41] = system: RPMI-8226
# [42] = system: SNB-19
# [43] = system: NCI-H460
# [44] = system: SW-620
# [45] = system: CAKI-1
# [46] = system: A549
# [47] = system: SK-MEL-2
# [48] = system: KM-20L2
# [49] = system: HCT-116
# [50] = system: UO-31
# [51] = system: UACC-257
# [52] = system: HL-60
# [53] = system: HT-29
# [54] = system: LXFL 529
# [55] = system: UACC-62
# [56] = system: HOP-62
# [57] = system: RXF 631
# [58] = system: SK-MEL-28
structure (smiles),measurement,setting,value
CC1(C)Cc2cc(C(=O)O)c3c(c2C1=O)COCC3,GI50,[1],> 100 µM (inactive)
same,GI50,[2],> 100 µM (inactive)
same,GI50,[3],> 100 µM (inactive)
same,GI50,[4],> 100 µM (inactive)
same,GI50,[5],> 100 µM (inactive)
same,GI50,[6],> 100 µM (inactive)
same,GI50,[7],> 100 µM (inactive)
same,GI50,[8],> 100 µM (inactive)
same,GI50,[9],> 100 µM (inactive)
same,GI50,[10],> 100 µM (inactive)
same,GI50,[11],> 100 µM (inactive)
same,GI50,[12],32.4 µM (inactive)
same,GI50,[13],> 100 µM (inactive)
same,GI50,[14],> 100 µM (inactive)
same,GI50,[15],> 100 µM (inactive)
same,GI50,[16],> 100 µM (inactive)
same,GI50,[17],> 100 µM (inactive)
same,GI50,[18],> 100 µM (inactive)
same,GI50,[19],> 100 µM (inactive)
same,GI50,[20],> 100 µM (inactive)
same,GI50,[21],> 10 µM (inactive)
same,GI50,[22],> 100 µM (inactive)
same,GI50,[23],> 100 µM (inactive)
same,GI50,[24],> 100 µM (inactive)
same,GI50,[25],> 100 µM (inactive)
same,GI50,[26],> 100 µM (inactive)
same,GI50,[27],> 100 µM (inactive)
same,GI50,[28],> 100 µM (inactive)
same,GI50,[29],> 100 µM (inactive)
same,GI50,[30],> 100 µM
same,GI50,[31],> 100 µM (inactive)
same,GI50,[32],> 100 µM (inactive)
same,GI50,[33],> 100 µM (inactive)
same,GI50,[34],> 100 µM (inactive)
same,GI50,[35],> 100 µM (inactive)
same,GI50,[36],> 100 µM (inactive)
same,GI50,[37],> 100 µM (inactive)
same,GI50,[38],> 100 µM (inactive)
same,GI50,[39],> 100 µM (inactive)
same,GI50,[40],> 100 µM (inactive)
same,GI50,[41],> 100 µM (inactive)
same,GI50,[42],> 100 µM (inactive)
same,GI50,[43],> 100 µM (inactive)
same,GI50,[44],> 100 µM (inactive)
same,GI50,[45],> 100 µM (inactive)
same,GI50,[46],> 100 µM (inactive)
same,GI50,[47],> 100 µM (inactive)
same,GI50,[48],> 100 µM (inactive)
same,GI50,[49],> 100 µM (inactive)
same,GI50,[50],> 100 µM (inactive)
same,GI50,[51],> 100 µM (inactive)
same,GI50,[52],> 100 µM (inactive)
same,GI50,[53],> 100 µM (inactive)
same,GI50,[54],> 100 µM (inactive)
same,GI50,[55],> 100 µM (inactive)
same,GI50,[56],> 100 µM (inactive)
CCOc1nc(OCC)nc(-c2cccn2-c2ccccc2)n1,GI50,[1],32.7 µM (inactive)
same,GI50,[2],74.1 µM (inactive)
same,GI50,[57],57.5 µM (inactive)
same,GI50,[3],28.5 µM (inactive)
same,GI50,[4],32.3 µM (inactive)
same,GI50,[5],25.8 µM (inactive)
same,GI50,[7],46.5 µM (inactive)
same,GI50,[8],29.5 µM (inactive)
same,GI50,[10],30.5 µM (inactive)
same,GI50,[11],35.5 µM (inactive)
same,GI50,[12],32.7 µM (inactive)
same,GI50,[14],33.7 µM (inactive)
same,GI50,[15],38.2 µM (inactive)
same,GI50,[16],21.4 µM (inactive)
same,GI50,[17],32.3 µM (inactive)
same,GI50,[18],18.5 µM (inactive)
same,GI50,[20],29.6 µM (inactive)
same,GI50,[21],23 µM (inactive)
same,GI50,[22],37.2 µM (inactive)
same,GI50,[23],20.7 µM (inactive)
same,GI50,[24],33 µM (inactive)
same,GI50,[25],45.1 µM (inactive)
same,GI50,[26],30.8 µM (inactive)
same,GI50,[27],29.6 µM (inactive)
same,GI50,[28],17.7 µM (inactive)
same,GI50,[29],32.2 µM (inactive)
same,GI50,[30],34.6 µM
same,GI50,[31],30.1 µM (inactive)
same,GI50,[32],47.4 µM (inactive)
same,GI50,[58],35.4 µM (inactive)
same,GI50,[34],26.3 µM (inactive)
same,GI50,[35],51.5 µM (inactive)
same,GI50,[37],27.7 µM (inactive)
same,GI50,[38],45.6 µM (inactive)
same,GI50,[40],38.3 µM (inactive)
same,GI50,[42],31.4 µM (inactive)
same,GI50,[43],29 µM (inactive)
same,GI50,[44],50.4 µM (inactive)
same,GI50,[45],30.5 µM (inactive)
same,GI50,[46],37.1 µM (inactive)
same,GI50,[47],34.8 µM (inactive)
same,GI50,[49],37.3 µM (inactive)
same,GI50,[50],22.1 µM (inactive)
same,GI50,[51],40.5 µM (inactive)
same,GI50,[52],21.7 µM (inactive)
same,GI50,[53],34.6 µM (inactive)
same,GI50,[55],27.7 µM (inactive)
same,GI50,[56],46.1 µM (inactive)
CCCCNC1=C(C(=O)OCC)/C(=N/NC(=O)c2ccccc2O)CO1,GI50,[1],18.5 µM (inactive)
same,GI50,[2],59.7 µM (inactive)
same,GI50,[3],79.3 µM (inactive)
same,GI50,[4],34.4 µM (inactive)
same,GI50,[5],19.4 µM (inactive)
same,GI50,[6],18.2 µM (inactive)
same,GI50,[7],6.97 µM (inactive)
same,GI50,[8],23.8 µM (inactive)
same,GI50,[9],62.2 µM (inactive)
same,GI50,[10],13.2 µM (inactive)
same,GI50,[11],95.1 µM (inactive)
same,GI50,[12],13.4 µM (inactive)
same,GI50,[13],29.2 µM (inactive)
same,GI50,[14],76.6 µM (inactive)
same,GI50,[15],> 100 µM (inactive)
same,GI50,[16],35.2 µM (inactive)
same,GI50,[17],6.93 µM (inactive)
same,GI50,[18],20.1 µM (inactive)
same,GI50,[19],1.73 µM (inactive)
same,GI50,[20],8.99 µM (inactive)
same,GI50,[21],98.4 µM (inactive)
same,GI50,[22],> 100 µM (inactive)
same,GI50,[23],27.1 µM (inactive)
same,GI50,[24],> 100 µM (inactive)
same,GI50,[25],32.1 µM (inactive)
same,GI50,[26],18.8 µM (inactive)
same,GI50,[27],23.7 µM (inactive)
same,GI50,[28],40.1 µM (inactive)
same,GI50,[32],> 100 µM (inactive)
same,GI50,[58],18.5 µM (inactive)
same,GI50,[33],> 100 µM (inactive)
same,GI50,[35],11.8 µM (inactive)
same,GI50,[36],25.5 µM (inactive)
same,GI50,[37],36.7 µM (inactive)
same,GI50,[38],61 µM (inactive)
same,GI50,[39],> 100 µM (inactive)
same,GI50,[40],37.2 µM (inactive)
same,GI50,[41],86.7 µM (inactive)
same,GI50,[42],> 100 µM (inactive)
same,GI50,[43],33.3 µM (inactive)
same,GI50,[44],39 µM (inactive)
same,GI50,[45],8.53 µM (inactive)
same,GI50,[46],47.8 µM (inactive)
same,GI50,[47],18.4 µM (inactive)
same,GI50,[48],> 100 µM (inactive)
same,GI50,[49],6.68 µM (inactive)
same,GI50,[50],4.54 µM (inactive)
same,GI50,[51],2.82 µM (inactive)
same,GI50,[52],24.8 µM (inactive)
same,GI50,[54],38 µM (inactive)
same,GI50,[55],13.1 µM (inactive)
same,GI50,[56],17.6 µM (inactive)
